# Test results as given in patent publication US20220296595A1, “CDK INHIBITORS” (QILU REGOR THERAPEUTICS INC., priority 2019, published 2022).
# System: phosphorylation of Retinoblastoma Protein (pRb Ser807/811 or Ser780) in T47D cells
# Assay: Inhibition of phosphorylation of retinoblastoma protein (pRb) in T47D cell (ELISA)
# Type: cell-based, human
# Conditions: Homo sapiens, T47D, read-out: Phospho T47D Ser807 IC50, pRb Ser807 phosphorylation, T47D cells
# Experimental: T47D breast cancer cells from American Type Culture Collection (ATCC, HTB-133) were plated at 40,000 cells/well in 96-well plates, and were incubated in RPMI 1640 medium (Gibco, 31800105) with 10% Fetal Bovine Serum (FBS, Biowest, FB-1058). Cells were then allowed to adhere overnight at 37° C., 5% CO2. The following day, compounds were titrated in a 3-fold dilution scheme, and the highest compound concentration tested was […]. After 24 hours incubation with compounds, cells were lysed in ice-cold lysis buffer containing phosphatase inhibitor cocktail and 1 mM PMSF. Cell lysates (50 μL/well) were then transferred to ELISA plates (pRb Ser807/811 ELISA kit, Cell Signaling, 13152 or pRb Ser780 ELISA kit, Cell Signaling, 13016)). Plates were incubated overnight at 4° C., with constant slow speed shaking. After incubation, plates were washed following manufacturer's recommendations, and then 100 μL reconstituted detection antibody was added to each well and incubated for 1 hour at 37° C. After incubation, plates were washed, and then 100 μL reconstituted HRP-linked secondary antibody was added to each well and incubated for 30 mins at 37° C. After incubation, plates were washed. Then, 100 μL TMB substrate was added to each well and incubated for 10 min at 37° C. or 30 min at 25° C. Finally, 100 μL of STOP solution was added to each well and mixed gently for a few seconds. Plates were read on the Envision plate reader (PerkinElmer, 2104-0010) using the 96-well […] mode. IC50 values were calculated using 4 parameter sigmoidal dose-response model of Xlfit5/GraphPad Prism 5 software.
row,Compound,IC50 [nM]
1,COc1nc(-c2ccnc(Nc3ccc(N4CCOCC4)cn3)n2)cc2c1ncn2C(C)C [compound 66],100 to 500
2,COc1nc(-c2ccnc(Nc3ccc(CN4CCOCC4)cn3)n2)cc2c1ncn2C(C)C [compound 81],100 to 500
3,CCN1CCN(c2ccc(Nc3nccc(N4CCc5ncn(C(C)C)c5C4)n3)nc2)C(=O)C1 [compound 241],< 100
4,CC(C)c1cnn2ccc(-c3ccnc(Nc4ccn(CC5CCNCC5)n4)n3)cc12 [compound 32],100 to 500
5,COc1nc(-c2ccnc(Nc3ccc(N4CCOC(C)C4)cn3)n2)cc2c1ncn2C(C)C (stereo not shown) [compound 96],100 to 500
6,CC(C)c1cnn2ccc(-c3ccnc(Nc4ccc(N5CCNCC5=O)nc4)n3)cc12 [compound 227],< 100
7,CC1(C)COc2c(F)cc(-c3ccnc(Nc4ccc(N5CCCNC5=O)cn4)n3)cc21 [compound 262],< 100
8,COc1nc(-c2ccnc(Nc3ccc(CN4CCC(F)C4)cn3)n2)cc2c1ncn2C(C)C (stereo not shown) [compound 76],100 to 500
9,CC(C)c1cnn2ccc(-c3ccnc(Nc4ccn(CC5CCN(C(=O)CC#N)CC5)n4)n3)cc12 [compound 56],100 to 500
10,CC(C)c1cnn2ccc(-c3ccnc(Nc4cnn(CC5CCNCC5)c4)n3)cc12 [compound 36],100 to 500
11,COc1nc(-c2ccnc(Nc3ccc(CN4CCC(C#N)C4)cn3)n2)cc2c1ncn2C(C)C (stereo not shown) [compound 67],100 to 500
12,COc1nc(-c2nc(Nc3ccc(N4CCC5(CC4)CC(=O)NC5=O)cn3)ncc2F)cc2c1nc(C)n2C(C)C [compound 79],100 to 500
13,COc1nc(-c2nc(Nc3ccc(N4CC5CCC(C4)O5)cn3)ncc2F)cc2c1nc(C)n2C(C)C [compound 65],100 to 500
14,COc1nc(-c2ccnc(Nc3ccc(N4CCN(C5COC5)CC4)cn3)n2)cc2c1ncn2C(C)C [compound 130],100 to 500
15,COc1nc(-c2nc(Nc3ccc(N4CCN(C5COC5)CC4)cn3)ncc2F)cc2c1ncn2C(C)C [compound 133],100 to 500
16,CC(C)n1cnc2c(F)nc(-c3ccnc(Nc4ccc(N5CCN(C)CC5)cn4)n3)cc21 [compound 290],< 100

# Same assay, conditions: pRb Ser807 phosphorylation, T47D cells; read-out: Phospho T47D Ser807 IC50
row,Compound,IC50 [nM]
1,"N-[5-[4-(dimethylamino)-1-piperidyl]-2-pyridyl]-4-(3-isopropylpyrazolo[1,5-a]pyridin-5-yl)pyrimidin-2-amine [Synthetic Example 161]",< 100

# System: T47D breast cancer cells
# Assay: Anti-proliferation assay in T47D cell (Cyquant, day 6)
# Type: cell-based, human
# Conditions: Homo sapiens, T47D, anti-proliferation, T47D cells; read-out: T47D IC50
# Procedure, shortened: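 Cells were grown in RPMI 1640 with 10% FBS at 37 °C and dosed the day after plating at ten concentrations, 10 μM to 0.51 nM in 3-fold steps. CyQuant fluorescence (ex 485/em 535 nm) was read on day 6. IC50 was fitted from baseline-subtracted viability curves, with the baseline read after overnight culture.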
row,Compound,IC50 [nM]
1,COc1nc(-c2ccnc(Nc3ccc(N4CCOCC4)cn3)n2)cc2c1ncn2C(C)C [compound 66],100 to 500
2,COc1nc(-c2ccnc(Nc3ccc(CN4CCOCC4)cn3)n2)cc2c1ncn2C(C)C [compound 81],100 to 500
3,CCN1CCN(c2ccc(Nc3nccc(N4CCc5ncn(C(C)C)c5C4)n3)nc2)C(=O)C1 [compound 241],100 to 500
4,CC(C)c1cnn2ccc(-c3ccnc(Nc4ccn(CC5CCNCC5)n4)n3)cc12 [compound 32],100 to 500
5,COc1nc(-c2ccnc(Nc3ccc(N4CCOC(C)C4)cn3)n2)cc2c1ncn2C(C)C (stereo not shown) [compound 96],100 to 500
6,CC(C)c1cnn2ccc(-c3ccnc(Nc4ccc(N5CCNCC5=O)nc4)n3)cc12 [compound 227],< 100
7,CC1(C)COc2c(F)cc(-c3ccnc(Nc4ccc(N5CCCNC5=O)cn4)n3)cc21 [compound 262],< 100
8,CC(C)c1cnn2ccc(-c3ccnc(Nc4cnn(CC5CCNCC5)c4)n3)cc12 [compound 36],100 to 500
9,COc1nc(-c2ccnc(Nc3ccc(N4CCN(C5COC5)CC4)cn3)n2)cc2c1ncn2C(C)C [compound 130],100 to 500

# Target: T1, CDK2/CyclinE1 (Homo sapiens, UniProt P24941)
# T1 construct: purchased SignalChem C29-18G
# Assay: Assay for inhibition of CDK2/CyclinE1 (Caliper microfluidic kinase assay)
# Type: biochemical
# Conditions: CDK2/CyclinE1, 100 μM ATP; read-out: CDK2 IC50
# Procedure, shortened: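 Caliper microfluidic mobility-shift assay: 5 nM CDK2/CyclinE1, 100 μM ATP, 5 μM FL-18 peptide (5-FAM-QSPKKG-NH2) in pH 7.5 HEPES buffer with MgCl2, DTT, BSA, Triton X-100. Incubated 3 hours at room temperature, EDTA-stopped; IC50 from 4-parameter sigmoidal fit.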
row,Compound,IC50 [nM]
1,CCN1CCN(c2ccc(Nc3nccc(N4CCc5ncn(C(C)C)c5C4)n3)nc2)C(=O)C1 [compound 241],100 to 1000
2,CC(C)c1cnn2ccc(-c3ccnc(Nc4ccn(CC5CCNCC5)n4)n3)cc12 [compound 32],> 1000
3,CC(C)c1cnn2ccc(-c3ccnc(Nc4ccc(N5CCNCC5=O)nc4)n3)cc12 [compound 227],< 10
4,CC1(C)COc2c(F)cc(-c3ccnc(Nc4ccc(N5CCCNC5=O)cn4)n3)cc21 [compound 262],100 to 1000
5,CC(C)c1cnn2ccc(-c3ccnc(Nc4ccn(CC5CCN(C(=O)CC#N)CC5)n4)n3)cc12 [compound 56],> 1000
6,CC(C)c1cnn2ccc(-c3ccnc(Nc4cnn(CC5CCNCC5)c4)n3)cc12 [compound 36],10 to 100
7,COc1nc(-c2ccnc(Nc3ccc(N4CCN(C5COC5)CC4)cn3)n2)cc2c1ncn2C(C)C [compound 130],> 1000
8,COc1nc(-c2nc(Nc3ccc(N4CCN(C5COC5)CC4)cn3)ncc2F)cc2c1ncn2C(C)C [compound 133],> 1000
9,CC(C)n1cnc2c(F)nc(-c3ccnc(Nc4ccc(N5CCN(C)CC5)cn4)n3)cc21 [compound 290],100 to 1000

# Same assay, conditions: CDK2/CyclinE1; read-out: CDK2 IC50
row,Compound,IC50 [nM]
1,COc1nc(-c2ccnc(Nc3ccc(N4CCOCC4)cn3)n2)cc2c1ncn2C(C)C [compound 66],> 1000
2,COc1nc(-c2ccnc(Nc3ccc(CN4CCOCC4)cn3)n2)cc2c1ncn2C(C)C [compound 81],> 1000
3,COc1nc(-c2ccnc(Nc3ccc(N4CCOC(C)C4)cn3)n2)cc2c1ncn2C(C)C (stereo not shown) [compound 96],> 1000
4,COc1nc(-c2ccnc(Nc3ccc(CN4CCC(F)C4)cn3)n2)cc2c1ncn2C(C)C (stereo not shown) [compound 76],> 1000
5,COc1nc(-c2ccnc(Nc3ccc(CN4CCC(C#N)C4)cn3)n2)cc2c1ncn2C(C)C (stereo not shown) [compound 67],> 1000
6,COc1nc(-c2nc(Nc3ccc(N4CCC5(CC4)CC(=O)NC5=O)cn3)ncc2F)cc2c1nc(C)n2C(C)C [compound 79],> 1000
7,COc1nc(-c2nc(Nc3ccc(N4CC5CCC(C4)O5)cn3)ncc2F)cc2c1nc(C)n2C(C)C [compound 65],> 1000

# Target: T2, CDK4/CyclinD1 (Homo sapiens, UniProt P11802)
# T2 construct: purchased Thermofisher PR8064A
# T2 sequence (P11802 whole entry): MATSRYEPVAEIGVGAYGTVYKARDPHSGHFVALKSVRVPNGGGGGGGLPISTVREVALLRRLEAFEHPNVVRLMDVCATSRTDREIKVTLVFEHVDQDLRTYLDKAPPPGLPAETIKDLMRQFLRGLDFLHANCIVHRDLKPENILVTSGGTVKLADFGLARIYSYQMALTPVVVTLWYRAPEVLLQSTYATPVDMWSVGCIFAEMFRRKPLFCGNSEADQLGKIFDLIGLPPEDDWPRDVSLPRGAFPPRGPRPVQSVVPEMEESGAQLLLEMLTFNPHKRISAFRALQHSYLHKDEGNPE
# T2 sequence (P24385 whole entry partner): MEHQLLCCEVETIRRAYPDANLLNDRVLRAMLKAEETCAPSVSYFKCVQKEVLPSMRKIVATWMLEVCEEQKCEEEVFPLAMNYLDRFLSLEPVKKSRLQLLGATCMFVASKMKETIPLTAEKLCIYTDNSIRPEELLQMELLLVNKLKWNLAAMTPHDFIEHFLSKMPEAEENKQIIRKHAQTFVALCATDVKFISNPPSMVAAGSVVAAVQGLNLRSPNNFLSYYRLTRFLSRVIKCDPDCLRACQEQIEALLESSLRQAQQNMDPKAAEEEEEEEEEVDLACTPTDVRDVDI
# Assay: Assay for inhibition of CDK4/CyclinD1 (Caliper microfluidic kinase assay)
# Type: biochemical
# Conditions: CDK4/CyclinD1
# Procedure, shortened: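 Caliper microfluidic mobility-shift assay tracking phosphorylation of 1 μM FL-34 peptide by 1 nM CDK4/CyclinD1 with 200 μM ATP in HEPES pH 7.5 buffer with 10 mM MgCl2. Reaction ran 3 h at room temperature, was stopped with EDTA, and IC50 came from a 4-parameter sigmoidal fit.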
row,Compound,IC50 [nM]
1,COc1nc(-c2ccnc(Nc3ccc(N4CCOCC4)cn3)n2)cc2c1ncn2C(C)C [compound 66],< 10
2,COc1nc(-c2ccnc(Nc3ccc(CN4CCOCC4)cn3)n2)cc2c1ncn2C(C)C [compound 81],10 to 100
3,COc1nc(-c2ccnc(Nc3ccc(N4CCOC(C)C4)cn3)n2)cc2c1ncn2C(C)C (stereo not shown) [compound 96],10 to 100
4,COc1nc(-c2ccnc(Nc3ccc(CN4CCC(F)C4)cn3)n2)cc2c1ncn2C(C)C (stereo not shown) [compound 76],10 to 100
5,COc1nc(-c2ccnc(Nc3ccc(CN4CCC(C#N)C4)cn3)n2)cc2c1ncn2C(C)C (stereo not shown) [compound 67],10 to 100
6,COc1nc(-c2nc(Nc3ccc(N4CCC5(CC4)CC(=O)NC5=O)cn3)ncc2F)cc2c1nc(C)n2C(C)C [compound 79],10 to 100
7,COc1nc(-c2nc(Nc3ccc(N4CC5CCC(C4)O5)cn3)ncc2F)cc2c1nc(C)n2C(C)C [compound 65],10 to 100

# Same assay, conditions: CDK4/CyclinD1, 200 μM ATP
row,Compound,IC50 [nM]
1,CCN1CCN(c2ccc(Nc3nccc(N4CCc5ncn(C(C)C)c5C4)n3)nc2)C(=O)C1 [compound 241],10 to 100
2,CC(C)c1cnn2ccc(-c3ccnc(Nc4ccn(CC5CCNCC5)n4)n3)cc12 [compound 32],10 to 100
3,CC(C)c1cnn2ccc(-c3ccnc(Nc4ccc(N5CCNCC5=O)nc4)n3)cc12 [compound 227],< 10
4,CC1(C)COc2c(F)cc(-c3ccnc(Nc4ccc(N5CCCNC5=O)cn4)n3)cc21 [compound 262],< 10
5,CC(C)c1cnn2ccc(-c3ccnc(Nc4ccn(CC5CCN(C(=O)CC#N)CC5)n4)n3)cc12 [compound 56],10 to 100
6,CC(C)c1cnn2ccc(-c3ccnc(Nc4cnn(CC5CCNCC5)c4)n3)cc12 [compound 36],10 to 100
7,COc1nc(-c2ccnc(Nc3ccc(N4CCN(C5COC5)CC4)cn3)n2)cc2c1ncn2C(C)C [compound 130],< 10
8,COc1nc(-c2nc(Nc3ccc(N4CCN(C5COC5)CC4)cn3)ncc2F)cc2c1ncn2C(C)C [compound 133],10 to 100
9,CC(C)n1cnc2c(F)nc(-c3ccnc(Nc4ccc(N5CCN(C)CC5)cn4)n3)cc21 [compound 290],< 10
